# Experimental data from patent publication US9994594B2, “Inhibitors of arginase and their therapeutic applications” (MARS, INCORPORATED, priority 2010, dated 2018).
# Structures can show the parent of a compound that is named as a salt. Where two headings read alike, the source gives them in different places.
# How the values were obtained:
# human arginase I (ARG I) = biological target: T1, human arginase I (ARG I) (Homo sapiens, UniProt P05089); test: Inhibition of arginase I, spectrophotometric urea assay at 530 nm; type: biochemical; conditions: read-out: Potency (ARG I)
# T1 sequence (P05089 1-322): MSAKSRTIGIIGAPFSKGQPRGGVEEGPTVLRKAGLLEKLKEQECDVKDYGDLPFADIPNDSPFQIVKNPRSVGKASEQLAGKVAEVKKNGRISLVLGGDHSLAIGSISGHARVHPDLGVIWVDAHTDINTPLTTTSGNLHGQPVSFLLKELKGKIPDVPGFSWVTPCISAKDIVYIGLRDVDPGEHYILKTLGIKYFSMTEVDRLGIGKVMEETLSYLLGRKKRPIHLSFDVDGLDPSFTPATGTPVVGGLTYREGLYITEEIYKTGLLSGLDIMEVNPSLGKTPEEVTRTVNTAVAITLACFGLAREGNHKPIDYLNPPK
# In short: (§1)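 IC50 was derived by regression of OD530 normalized to uninhibited-enzyme controls against log concentration. Urea from 60-min, 37 °C turnover of L-arginine with manganese sulfate was detected after acid o-phthaldialdehyde/primaquine quench and 10 min colour development. Arginase I and II came from 100 ng/ml stocks in pH 7.4 phosphate with ovalbumin.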
# arginase II (ARG II) = biological target: T2, arginase II (ARG II) (Homo sapiens, UniProt P78540); test: Inhibition of arginase II, spectrophotometric urea assay at 530 nm; type: biochemical
# T2 sequence (P78540 23-354): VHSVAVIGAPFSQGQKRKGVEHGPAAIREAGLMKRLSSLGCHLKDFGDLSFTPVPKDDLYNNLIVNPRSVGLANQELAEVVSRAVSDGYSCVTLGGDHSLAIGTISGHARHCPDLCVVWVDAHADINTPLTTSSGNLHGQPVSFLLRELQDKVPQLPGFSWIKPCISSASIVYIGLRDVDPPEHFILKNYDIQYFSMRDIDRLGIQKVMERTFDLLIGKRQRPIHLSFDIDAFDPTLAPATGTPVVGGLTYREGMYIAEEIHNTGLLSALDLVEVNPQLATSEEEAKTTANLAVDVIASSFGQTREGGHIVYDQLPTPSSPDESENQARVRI
# In short: as §1
# [1] = Formula I compounds, Table 2, read-out: Potency (ARG II)
# [2] = Formula II compounds, Table 2-A
# [3] = Formula II compounds, Table 2-A, read-out: Potency (ARG)
SMILES,"IC50 (human arginase I (ARG I); Formula I compounds, Table 2) [nM]",IC50 (arginase II (ARG II); [1]) [nM],IC50 (human arginase I (ARG I); [2]) [nM],IC50 (arginase II (ARG II); [3]) [nM]
"COCCN1CCN(CCC(N)(CCCCB(O)O)C(=O)O)CC1 (centres unmarked) [compound 77, 2-amino-6-borono-2-(2-(4-(2-methoxyethyl)piperazin-1-yl)ethyl)hexanoic acid trihydrochloride]",2000 to 5000,> 5000,,
"NC(CCCCB(O)O)(C(=O)O)C1CCN(Cc2cccc3c2OCCC3)CC1 (centres unmarked) [Example 60-A, 2-amino-6-borono-2-(1-(chroman-8-ylmethyl)piperidin-4-yl)hexanoic acid dihydrochloride]",,,0.1 to 250,0.1 to 250
"NC(CCCCB(O)O)(C(=O)O)[C@H]1C[C@@H](NCc2cccc3cccnc23)C1 (stereo partly drawn) [Example 79-A, cis-2-amino-6-borono-2-(3-(quinolin-8-ylmethylamino)cyclobutyl)hexanoic acid dihydrochloride]",,,0.1 to 250,0.1 to 250
"NC(CCCCB(O)O)(C(=O)O)C1CCN(Cc2ccc(F)c3ccccc23)CC1 (centres unmarked) [Example 51-A, 2-amino-6-borono-2-(1-((4-fluoronaphthalen-1-yl)methyl)piperidin-4-yl)hexanoic acid]",,,0.1 to 250,251 to 1000
"NC(CCCCB(O)O)(C(=O)O)C1CCN(c2ccc(C(F)(F)F)cn2)CC1 (centres unmarked) [1-A, 2-amino-6-borono-2-(5′Trifluoromethyl-3,4,5,6-tetrahydro-2H-[1,2′]bipyridinyl-4-yl)-hexanoic acid hydrochloride]",,,251 to 1000,1000 to 2000
"NC(CCCCB(O)O)(C(=O)O)C1CCN(CCc2ccc(F)c(F)c2)CC1 (centres unmarked) [Example 59-A, 2-amino-6-borono-2-(1-(3,4-difluorophenethyl)piperidin-4-yl)hexanoic acid acid dihydrochloride]",,,0.1 to 250,0.1 to 250
"Cc1cc(C(F)(F)F)cc(N2CCC(C(N)(CCCCB(O)O)C(=O)O)CC2)n1 (centres unmarked) [7-A, 2-amino-6-borono-2-(1-(6-methyl-4-(trifluoromethyl)pyridin-2-yl)piperidin-4-yl)hexanoic acid]",,,1000 to 2000,2000 to 5000
"NC(CCCCB(O)O)(C(=O)O)[C@H]1C[C@@H](NCc2ccccc2)C1 (stereo partly drawn) [Example 74-A, cis-2-amino-2-(3-(benzylamino)cyclobutyl)-6-boronohexanoic acid dihydrochloride]",,,0.1 to 250,0.1 to 250
"CN(C)CCN(C)CCC(N)(CCCCB(O)O)C(=O)O (centres unmarked) [compound 71, 2-amino-6-borono-2-(2-((2-(dimethylamino)ethyl)(methyl)amino)ethyl)hexanoic acid trihydrochloride]",2000 to 5000,2000 to 5000,,
"NC(CCCCB(O)O)(C(=O)O)C1CCN(C(=O)Cc2ccc(F)cc2)CC1 (centres unmarked) [28-A, 2-amino-6-borono-2-{1-[(4-fluorophenyl)acetyl]-piperidin-4-yl}hexanoic acid hydrochloride]",,,2000 to 5000,2000 to 5000
"CC1(C(=O)O)CCN(CCC(N)(CCCCB(O)O)C(=O)O)CC1 (centres unmarked) [compound 57, 1-(3-amino-7-borono-3-carboxyheptyl)-4-methylpiperidine-4-carboxylic acid]",1000 to 2000,1000 to 2000,,
"NC(CCCCB(O)O)(CCNC1CC1)C(=O)O (centres unmarked) [compound 68, 2-amino-6-borono-2-(2-(cyclopropylamino)ethyl)hexanoic acid dihydrochloride]",251 to 1000,251 to 1000,,
"Cc1cc2c(F)ccc(C)c2nc1N1CCC(C(N)(CCCCB(O)O)C(=O)O)CC1 (centres unmarked) [5-A, 2-amino-6-borono-2-(1-(5-fluoro-3,8-dimethylquinolin-2-yl)piperidin-4-yl)hexanoic acid dihydrochloride]",,,1000 to 2000,251 to 1000
"NC(CCCCB(O)O)(CNC1CCOCC1)C(=O)O (centres unmarked) [compound 87, 2-amino-6-borono-2-((tetrahydro-2H-pyran-4-ylamino)methyl)hexanoic acid dihydrochloride]",1000 to 2000,1000 to 2000,,
"CC(C)n1cncc1CC(N)(CCCCB(O)O)C(=O)O (centres unmarked) [compound 107, 2-amino-6-borono-2-((1-isopropyl-1H-imidazol-5-yl)methyl)hexanoic acid dihydrochloride]",> 5000,> 5000,,
"NC1CCC(C(N)(CCCCB(O)O)C(=O)O)CC1 (centres unmarked) [20-A, 2-amino-2-(4-aminocyclohexyl)-6-boronohexanoic acid dihydrochloride]",,,251 to 1000,251 to 1000
"CCCCC1(NCCC(N)(CCCCB(O)O)C(=O)O)CC1 (centres unmarked) [compound 60, 2-amino-6-borono-2-(2-(1-butylcyclopropylamino)ethyl)hexanoic acid dihydrochloride]",0.1 to 250,251 to 1000,,

SMILES,"IC50 (human arginase I (ARG I); Formula I compounds, Table 2) [nM]",IC50 (arginase II (ARG II); [1]) [nM],IC50 (human arginase I (ARG I); [2]) [nM],IC50 (arginase II (ARG II); [3]) [nM]
"NC(CCCCB(O)O)(CCCN1CCCCC1)C(=O)O (centres unmarked) [compound 147, 2-amino-6-borono-2-(3-(piperidin-1-yl)propyl)hexanoic acid dihydrochloride]",0.1 to 250,251 to 1000,,
"CNC(CCCCB(O)O)(CCCNCc1ccc(Cl)cc1)C(=O)O (centres unmarked) [compound 139, 6-borono-2-(3-(4-chlorobenzylamino)propyl)-2-(methylamino)hexanoic acid dihydrochloride]",0.1 to 250,0.1 to 250,,
"NC(CCCCB(O)O)(C(=O)O)C1CCN(C(=O)Cc2ccc(Cl)cc2)CC1 (centres unmarked) [29-A, 2-amino-6-borono-2-{1-[(4-chlorophenyl)acetyl]-piperidin-4-yl}hexanoic acid hydrochloride]",,,1000 to 2000,> 5000
"NC(CCCCB(O)O)(CCN1CCN(c2ncccn2)CC1)C(=O)O (centres unmarked) [compound 17, 2-Amino-6-borono-2-[2-(4-pyrimidin-2-yl-piperazin-1-yl)ethyl]-hexanoic acid trihydrochloride]",2000 to 5000,2000 to 5000,,
"NC(CCCCB(O)O)(C(=O)O)C1CCN(Cc2ccc3ccccc3c2)CC1 (centres unmarked) [Example 99-A, 2-amino-6-borono-2-(1-(naphthalen-2-ylmethyl)piperidin-4-yl)hexanoic acid dihydrochloride]",,,0.1 to 250,0.1 to 250
"NC(CCCCB(O)O)(CNCc1ccccc1)C(=O)O (centres unmarked) [compound 84, 2-amino-2-((benzylamino)methyl)-6-boronohexanoic acid]",2000 to 5000,> 5000,,
"NC(CCCCB(O)O)(C(=O)O)[C@H]1CCN(Cc2ccccc2)C1 (stereo partly drawn) [Example 68-A, 2-amino-2-((S)-1-benzylpyrrolidin-3-yl)-6-boronohexanoic acid dihydrochloride]",,,251 to 1000,251 to 1000
"N[C@](CCCCB(O)O)(CCN1CCSCC1)C(=O)O [compound 8, (R)-2-amino-6-borono-2-(2-thiomorpholinoethyl)hexanoic acid dihydrochloride]",1000 to 2000,2000 to 5000,,
"NC(CCCCB(O)O)C(=O)c1ccccc1 (centres unmarked) [compound 114, 5-amino-6-oxo-6-phenylhexylboronic acid hydrochloride]",> 5000,> 5000,,
"NC(CCCCB(O)O)(CCCNCCc1ccc(Cl)cc1Cl)C(=O)O (centres unmarked) [compound 140, 2-amino-6-borono-2-(3-(2,4-dichlorophenethylamino)propyl)hexanoic acid dihydrochloride]",0.1 to 250,0.1 to 250,,
"NC(CCCCB(O)O)(C(=O)O)C(O)C1CCNCC1 (centres unmarked) [compound 109, 2-amino-6-borono-2-(hydroxy(piperidin-4-yl)methyl)hexanoic acid dihydrochloride]",2000 to 5000,> 5000,,
"NC(CCCCB(O)O)(C(=O)O)C1CCN(CCCc2ccc(Cl)cc2)CC1 (centres unmarked) [Example 46-A, 2-amino-6-borono-2-(1-(3-(4-chlorophenyl)propyl)piperidin-4-yl)hexanoic acid]",,,0.1 to 250,0.1 to 250
"NC(CCCCB(O)O)(CCN1CCN(c2ccccc2)CC1)C(=O)O (centres unmarked) [compound 76, 2-amino-6-borono-2-(2-(4-phenylpiperazin-1-yl)ethyl)hexanoic acid dihydrochloride]",> 5000,> 5000,,
"NC(CCCCB(O)O)(C(=O)O)C1CCN(Cc2ccc(F)c(F)c2)CC1 (centres unmarked) [Example 48-A, 2-amino-6-borono-2-(1-(3,4-difluorobenzyl)piperidin-4-yl)hexanoic acid]",,,0.1 to 250,251 to 1000
"NC(CCCCB(O)O)(C(=O)O)C1CCN(C(=O)Nc2ccc(Cl)cc2)CC1 (centres unmarked) [32-A, 2-amino-6-borono-2-{1-[(4-chlorophenyl)-carbamoyl]piperidin-4-yl}hexanoic acid hydrochloride]",,,251 to 1000,251 to 1000
"NC(CCCCB(O)O)(CC1CN(Cc2ccc(Cl)c(Cl)c2)C1)C(=O)O (centres unmarked) [compound 117, 2-amino-6-borono-2-((1-(3,4-dichlorobenzyl)azetidin-3-yl)methyl)hexanoic acid dihydrochloride]",251 to 1000,2000 to 5000,,
"NC(CCCCB(O)O)(C(=O)O)C1CCN(Cc2ccc(Cl)c(Cl)c2)CC1 (centres unmarked) [Example 95-A, 2-amino-6-borono-2-(1-(3,4-dichlorobenzyl)piperidin-4-yl)hexanoic acid dihydrochloride]",,,0.1 to 250,251 to 1000
